Experimental data as given in US20250241901A1, “ACTIVATION OF MNRR1 / CHCHD2 AS A THERAPEUTIC TARGET FOR MITOCHONDRIA ASSOCIATED DISORDERS” (Wayne State University, priority 2024, published 2025).

Columns and labels:
[1] = tested on: inflammatory factors such as ll6, ll1b, Tnf, and Tlr4; test: High-throughput RT qPCR of inflammatory factors in decidua; assay type: in vivo, mouse; conditions: LPS-injected dams
Method: FIGS. 3A & 3B. The transcript levels of several inflammatory factors such as 116, Illb, Tnf, and Tlr4, among others, were assessed in the decidual samples and increased expression was found in dams intra-amniotically injected with LPS that was abrogated upon treatment with nitazoxanide.
High-throughput RT qPCR: This was performed as previously described (Motomura et al., JCI Insight, 7, 2022). Briefly, total RNA was isolated from decidua with RNeasy Mini Kits (Qiagen), according to the manufacturer's instructions. RNA concentrations, purity, and integrity were evaluated with the NanoDrop 8000 spectrophotometer (Thermo Scientific, Wilmington, DE, USA) and the Bioanalyzer 2100 (Agilent Technologies, Wilmington, DE, USA). cDNA was synthesized by using SuperScript IV VILO Master Mix (Invitrogen by Thermo Fisher Scientific Baltics UAB, Vilnius, Lithuania). Gene expression profiling of the tissues was performed on the BioMark System for high-throughput RT-qPCR (Fluidigm, San Francisco, CA, USA) or the ABI 7500 Fast real-time PCR system (Applied Biosystems, Life Technologies Corporation, Pleasanton, CA, USA) with the TaqMan gene expression assays (Applied Biosystems, Life Technologies Corporation). […] Data were normalized by using multiple reference genes (Gusb, Hsp90abl, Gapdh, and Actb) averaged within each sample, and relative changes in transcript levels were calculated by the AACt method. […]

[2] = Clinical use of nitazoxanide in adult humans; assay type: in vivo, human; conditions: 500 mg (per adult) twice a day
[3] = tested on: MELAS patient fibroblasts; test: LPS-induced ROS and TNF levels in MELAS patient fibroblasts; assay type: cell-based, human; conditions: 10 μM + 500 ng/mL LPS, 24 h
Method: FIGS. 8A-8D: MNRR1 activation using tizoxanide enhances mitochondrial function, mitophagy, and protects from LPS-induced inflammation in MELAS patient fibroblasts. FIG. 8A: Equal amounts of lysates from MELAS patient fibroblast (MF 1, 2, or 3) lysates treated with vehicle (DMSO) or tizoxanide (10 μM) for 48 h were separated on an SDS-PAGE gel and probed for LC3B, PGC1a, MNRR1, MTCO2, TOM20, and phospho-ubiquitin (S65) levels. GAPDH orTubulin was probed as a loading control. FIG. 8B: Oxygen consumption measured from MELAS patient fibroblasts treated with vehicle (DMSO) or tizoxanide (10 μM) for 48 h (n=4 biological replicates, mean±SE). FIG. 8C: Mitochondrial ATP rate measured in MELAS patient fibroblasts treated with vehicle (DMSO) or tizoxanide (10 μM) for 48 h (n=4 biological replicates, mean±SE). FIG. 8D: Heatmap representation of ROS and TNFα transcript levels from MELAS patient fibroblasts treated with vehicle (DMSO), LPS (DMSO+500 ng/mL LPS), or LPS plus tizoxanide (10 μM tizoxanide+500 ng/mL LPS) for 24 h (n=4 biological replicates). In all figures, * indicates p<0.05, ** indicates p<0.005.
ROS measurements: Total cellular ROS measurements were performed with CM-H2DCFDA (Life Technologies). […] Cells were washed twice in phosphate buffered saline and analyzed for fluorescence on a BioTek Synergy H1 Microplate Reader (Agilent).

Row | Compound | LPS-increased transcript levels of inflammatory factors in decidual samples [1] | drug concentration in the blood [2] | LPS-induced pro-inflammatory response (ROS and TNF levels) [3]
1 | CC(=O)Oc1ccccc1C(=O)Nc1ncc([N+](=O)[O-])s1 [nitazoxanide, Nitazoxanide] | abrogated | around 600 micromolar | 
2 | O=C(Nc1ncc([N+](=O)[O-])s1)c1ccccc1O [tizoxanide, Tizoxanide] |  |  | blocked
